Laboratory results published in patent US9884063B2, “Amido-substituted azole compounds” (Bayer Pharma Aktiengesellschaft, priority 2014, dated 2018).

Legend:
TNKS2 = molecular target: T1, TNKS2 (Homo sapiens, UniProt Q9H2K2); assay: Modified TNKS2 Assay 3 (BPS kit #80578, biotin-NAD+, 96 well); type: biochemical; conditions: human TNKS2, BPS kit #80578, 96 well
T1 sequence (Q9H2K2 1-1166): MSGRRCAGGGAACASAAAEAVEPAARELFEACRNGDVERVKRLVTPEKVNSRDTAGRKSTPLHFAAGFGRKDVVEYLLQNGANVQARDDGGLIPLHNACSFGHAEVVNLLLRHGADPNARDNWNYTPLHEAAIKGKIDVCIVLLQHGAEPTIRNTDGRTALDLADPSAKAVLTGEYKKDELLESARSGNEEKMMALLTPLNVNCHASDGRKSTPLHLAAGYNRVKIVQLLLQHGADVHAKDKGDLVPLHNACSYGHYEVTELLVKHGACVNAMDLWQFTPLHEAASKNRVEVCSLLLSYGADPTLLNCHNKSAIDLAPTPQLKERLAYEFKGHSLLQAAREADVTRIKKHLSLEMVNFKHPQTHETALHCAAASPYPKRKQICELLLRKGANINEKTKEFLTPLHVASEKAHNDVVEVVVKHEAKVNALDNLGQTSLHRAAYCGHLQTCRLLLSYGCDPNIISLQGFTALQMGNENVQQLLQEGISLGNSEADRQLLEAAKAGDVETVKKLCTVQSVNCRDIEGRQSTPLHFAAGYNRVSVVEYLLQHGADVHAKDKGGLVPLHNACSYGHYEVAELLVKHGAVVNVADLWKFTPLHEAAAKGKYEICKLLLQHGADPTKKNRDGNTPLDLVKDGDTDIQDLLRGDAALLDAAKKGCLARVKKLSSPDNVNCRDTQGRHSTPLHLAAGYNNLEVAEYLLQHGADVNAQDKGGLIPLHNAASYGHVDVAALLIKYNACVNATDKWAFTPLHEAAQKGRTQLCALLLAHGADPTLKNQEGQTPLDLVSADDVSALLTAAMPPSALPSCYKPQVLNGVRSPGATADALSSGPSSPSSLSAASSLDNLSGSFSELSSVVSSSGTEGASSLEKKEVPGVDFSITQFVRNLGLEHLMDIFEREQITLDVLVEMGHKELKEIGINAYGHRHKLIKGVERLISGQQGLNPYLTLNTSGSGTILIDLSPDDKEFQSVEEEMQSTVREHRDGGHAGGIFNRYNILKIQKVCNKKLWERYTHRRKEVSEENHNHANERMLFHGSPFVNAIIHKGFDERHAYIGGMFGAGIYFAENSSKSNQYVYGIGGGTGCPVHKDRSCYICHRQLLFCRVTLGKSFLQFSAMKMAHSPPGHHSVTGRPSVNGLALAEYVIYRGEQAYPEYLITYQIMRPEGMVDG
Method in brief: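 Commercial kit assay measuring TNKS2-catalysed incorporation of biotin-labelled NAD+ into a protein substrate, detected by streptavidin-HRP chemiluminescence. Run per manufacturer's protocol; IC50 is the concentration halving the normalised signal.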

[1] = system: wildtype Wnt signaling cascade; assay: HEK293 TOP Assay (Super TopFlash luciferase reporter, Wnt-3a stimulated); type: cell-based; conditions: Homo sapiens, HEK293, 16 h, HEK293 TOP reporter cell line, Wnt-3a at EC50, 16 hours incubation, compound dilution series 50 μM to 15 nM
Method in brief: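 Compounds (50 μM down to 15 nM, 3.16-fold steps, in CAFTY buffer pH 7.4, 2 mM Ca2+, 0.01% BSA) tested in parallel on TOP and FOP HEK293 reporter lines to define selective wildtype Wnt inhibition. Pathway driven by recombinant human Wnt-3a applied at 2500–5 ng/ml in two-fold dilutions.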

SMILES | IC50 (TNKS2) | IC50 [1]
O=C(Nc1ccc(NC(=O)c2[nH]cnc2C(=O)NCCN2CCCCC2)cc1)c1cc(OC(F)(F)F)ccc1Br [Example 63, N^5-(4-{[2-bromo-5-(trifluoromethoxy)benzoyl]amino}phenyl)-N^4-[2-(piperidin-1-yl)ethyl]-1H-imidazole-4,5-dicarboxamide] | 4 nM | 110 nM
CNC(=O)c1[nH]c(C)nc1C(=O)Nc1ccc(NC(=O)c2ccc(F)cc2Cl)cc1 [Example 65, N^4-{4-[(2-chloro-4-fluorobenzoyl)amino]phenyl}-N^5,2-dimethyl-1H-imidazole-4,5-dicarboxamide] | 360 nM | 800 nM
CCc1nc(C(=O)Nc2ccc(NC(=O)c3ccc(F)cc3Cl)cc2)c(C(=O)NCCN(C)C)[nH]1 [Example 69, N^4-{4-[(2-chloro-4-fluorobenzoyl)amino]phenyl}-N^5-[2-(dimethylamino)ethyl]-2-ethyl-1H-imidazole-4,5-dicarboxamide] | 190 nM | 190 nM
CCc1nc(C(=O)Nc2ccc(NC(=O)c3ccc(F)cc3Cl)cc2)c(C(=O)NCCN2CCCCC2)[nH]1 [Example 70, N^4-{4-[(2-chloro-4-fluorobenzoyl)amino]phenyl}-2-ethyl-N^5-[2-(piperidin-1-yl)ethyl]-1H-imidazole-4,5-dicarboxamide] | 20 nM | 130 nM
O=C(Nc1ccc(NC(=O)c2[nH]cnc2C(=O)NCCN2CCCCC2)cc1F)c1ccc(F)cc1Cl [Example 74, N^5-{4-[(2-chloro-4-fluorobenzoyl)amino]-3-fluorophenyl}-N^4-[2-(piperidin-1-yl)ethyl]-1H-imidazole-4,5-dicarboxamide] | < 0.5 nM | 70 nM
O=C(Nc1ccc(NC(=O)c2[nH]cnc2C(=O)NCCN2CCCCC2)cc1F)c1ccccc1Cl [Example 82, N^5-{4-[(2-chlorobenzoyl)amino]-3-fluorophenyl}-N^4-[2-(piperidin-1-yl)ethyl]-1H-imidazole-4,5-dicarboxamide] | < 0.5 nM | 90 nM
CNC(=O)c1nc[nH]c1C(=O)Nc1ccc(NC(=O)c2ccc(F)cc2Cl)c(OC)c1 [Example 95, N^5-{4-[(2-chloro-4-fluorobenzoyl)amino]-3-methoxyphenyl}-N^4-methyl-1H-imidazole-4,5-dicarboxamide] | 60 nM | 270 nM
COc1cc(NC(=O)c2[nH]cnc2C(=O)NCCN2CCCCC2)ccc1NC(=O)c1ccc(F)cc1Cl [Example 97, N^5-{4-[(2-chloro-4-fluorobenzoyl)amino]-3-methoxyphenyl}-N^4-[2-(piperidin-1-yl)ethyl]-1H-imidazole-4,5-dicarboxamide] | 20 nM | 80 nM
CNC(=O)c1nc[nH]c1C(=O)Nc1ccc(NC(=O)c2ccccc2Cl)c(OC)c1 [Example 99, N^5-{4-[(2-chlorobenzoyl)amino]-3-methoxyphenyl}-N^4-methyl-1H-imidazole-4,5-dicarboxamide] | 90 nM | 540 nM
COc1cc(NC(=O)c2[nH]cnc2C(=O)NCCN2CCCCC2)ccc1NC(=O)c1ccccc1Cl [Example 101, N^5-{4-[(2-chlorobenzoyl)amino]-3-methoxyphenyl}-N^4-[2-(piperidin-1-yl)ethyl]-1H-imidazole-4,5-dicarboxamide] | 10 nM | 220 nM
CC(C)c1nc(C(=O)Nc2ccc(NC(=O)c3ccc(F)cc3Cl)cc2)c(C(=O)NCCN2CCCCC2)[nH]1 [Example 108, N^4-{4-[(2-chloro-4-fluorobenzoyl)amino]phenyl}-2-isopropyl-N^5-[2-(piperidin-1-yl)ethyl]-1H-imidazole-4,5-dicarboxamide] | > 500 nM | 5000 nM
NC(=O)c1nc[nH]c1C(=O)Nc1ccc(NC(=O)c2ccccc2Cl)cc1 [Example 120, N^5-{4-[(2-chlorobenzoyl)amino]phenyl}-1H-imidazole-4,5-dicarboxamide] | 140 nM | 1200 nM
O=C(Nc1ccc(NC(=O)c2nc[nH]c2C(=O)NCC2CC2)cc1)c1ccc(F)cc1Cl [Example 128, N^4-{4-[(2-chloro-4-fluorobenzoyl)amino]phenyl}-N^5-(cyclopropylmethyl)-1H-imidazole-4,5-dicarboxamide] | > 500 nM | 260 nM
O=C(Nc1ccc(NC(=O)c2nc[nH]c2C(=O)NCCO)cc1)c1ccc(F)cc1Cl [Example 132, N^4-{4-[(2-chloro-4-fluorobenzoyl)amino]phenyl}-N^5-(2-hydroxyethyl)-1H-imidazole-4,5-dicarboxamide] | 430 nM | 140 nM
CC(C)[C@@H](C)NC(=O)c1[nH]cnc1C(=O)Nc1ccc(NC(=O)c2ccc(F)cc2Cl)cc1 [Example 134, N^4-{4-[(2-chloro-4-fluorobenzoyl)amino]phenyl}-N^5-[(2R)-3-methylbutan-2-yl]-1H-imidazole-4,5-dicarboxamide] | 510 nM | 640 nM
CCNC(=O)c1[nH]cnc1C(=O)Nc1ccc(NC(=O)c2ccc(F)cc2Cl)cc1 [Example 138, N^4-{4-[(2-chloro-4-fluorobenzoyl)amino]phenyl}-N^5-ethyl-1H-imidazole-4,5-dicarboxamide] | 150 nM | 260 nM
O=C(Nc1ccc(NC(=O)c2nc[nH]c2C(=O)NCC(F)F)cc1)c1ccc(F)cc1Cl [Example 139, N^4-{4-[(2-chloro-4-fluorobenzoyl)amino]phenyl}-N^5-(2,2-difluoroethyl)-1H-imidazole-4,5-dicarboxamide] | 350 nM | 360 nM
O=C(Nc1ccc(NC(=O)c2nc[nH]c2C(=O)N2CCC2)cc1)c1ccc(F)cc1Cl [Example 142, 5-(azetidin-1-ylcarbonyl)-N-{4-[(2-chloro-4-fluorobenzoyl)amino]phenyl}-1H-imidazole-4-carboxamide] | 60 nM | 120 nM
O=C(Nc1ccc(NC(=O)c2nc[nH]c2C(=O)N2CC3(COC3)C2)cc1)c1ccc(F)cc1Cl [Example 145, N-{4-[(2-chloro-4-fluorobenzoyl)amino]phenyl}-5-(2-oxa-6-azaspiro[3.3]hept-6-ylcarbonyl)-1H-imidazole-4-carboxamide] | > 500 nM | 290 nM
CC1CCCN(CCNC(=O)c2[nH]cnc2C(=O)Nc2ccc(NC(=O)c3ccccc3Cl)cc2)C1 (stereo not drawn) [Example 210, N^4-{4-[(2-chlorobenzoyl)amino]phenyl}-N^5-[2-(3-methylpiperidin-1-yl)ethyl]-1H-imidazole-4,5-dicarboxamide] | 3 nM | 130 nM
O=C(Nc1ccc(NC(=O)c2nc[nH]c2C(=O)NCCN2CCC(F)(F)CC2)cc1)c1ccccc1Cl [Example 214, N^4-{4-[(2-chlorobenzoyl)amino]phenyl}-N^5-[2-(4,4-difluoropiperidin-1-yl)ethyl]-1H-imidazole-4,5-dicarboxamide] | 70 nM | 1250 nM
O=C(Nc1ccc(NC(=O)c2nc[nH]c2C(=O)NCCN2CCC(F)(F)CC2)cc1)c1ccc(F)cc1Br [Example 215, N^4-{4-[(2-bromo-4-fluorobenzoyl)amino]phenyl}-N^5-[2-(4,4-difluoropiperidin-1-yl)ethyl]-1H-imidazole-4,5-dicarboxamide] | 120 nM | 400 nM
CC(C)(N)CNC(=O)c1ncoc1C(=O)Nc1ccc(NC(=O)c2ccc(F)cc2Cl)cc1 [Example 219, N^4-(2-amino-2-methylpropyl)-N^5-{4-[(2-chloro-4-fluorobenzoyl)amino]phenyl}-1,3-oxazole-4,5-dicarboxamide] | 420 nM | 7500 nM
O=C(Nc1ccc(NC(=O)c2ocnc2C(=O)NCCN2CCCC(F)C2)cc1)c1ccc(F)cc1Cl (stereo not drawn) [Example 220, N^5-{4-[(2-chloro-4-fluorobenzoyl)amino]phenyl}-N^4-[2-(3-fluoropiperidin-1-yl)ethyl]-1,3-oxazole-4,5-dicarboxamide] | 100 nM | 690 nM
